The record followed here is PMC10283505, “CVM-1118 (foslinanib), a 2-phenyl-4-quinolone derivative, promotes apoptosis and inhibits vasculogenic mimicry via targeting TRAP1” (Pathology and Oncology Research, 2023).

A word on the IC50: it is the concentration needed to halve the response being measured. Broadly, the bioavailability is the share of a dose that reaches the circulation, judged against a reference dose that is usually intravenous. By AUC(0-inf) is commonly meant the area under the concentration-time curve extrapolated to infinity. Lower therefore signals low exposure. Usually AUC(0-t) stands for exposure summed from dosing to a finite time, without extrapolation to infinity. A higher AUC(0-t) goes with more exposure. Usually Cmax stands for the highest concentration seen after dosing. For orientation: MRT means the average time that molecules of a dose stay in the body. One may read the Tmax as the time at which the peak concentration occurs. The term GI50 denotes the concentration giving 50% growth inhibition. Read a high GI50 as less potent growth inhibition.

SMILES strings stand for the structures.

Data set [1] has as its system nine selected human cancer cell lines. In words: Cytotoxicity assay, panel of nine selected human cancer cell lines. Type of data set: cell-based. Particulars: all nine cell lines of Table 1. The protocol:
(§1) This assay was conducted in ProQinase GmbH (Freiburg, Germany). Nine cancer cell lines (A549, DU-145, HT-29, MDA-MB-231, MDA-MB-435, Mia PaCa-2, NCI-ADR-RES, SK-N-MC, and U118MG) were seeded at 5,000 cells/well in 96-well cell culture plates in 150 µL of complete medium for 24 h prior to treatment. The test compounds CVM-1118 and CVM-1125 were synthesized by China Medical University, Chengdu Chempartner Co., Ltd., and Formosa Laboratories, Inc. To prepare the assay, the compounds were dissolved in 100% DMSO at a concentration of […]. Cells were then treated with vehicle, CVM-1118 or CVM-1125 at various concentrations for 72 h. Cell viability was determined by the fluorescent quantification of Alamar Blue (Invitrogen, Thermo Fisher Scientific). By the end of incubation, Alamar Blue reagent was added to the well for 4 h and the fluorescence was measured at 590 nm. The amount of fluorescence produced is proportional to the number of metabolically active cells. IC50 determination was performed using a variable slope sigmoidal response fitting model with 0% cell growth as a bottom constraint and 100% cell growth as a top constraint (GraphPad Prism, United States).

Data set [2] in a line: Pharmacokinetic study of oral CVM-1118 in mouse (plasma, LC-MS/MS). Type of data set: in vivo, male CD-1 mice. Particulars: for AUC(0-inf) / AUC(0-t) / Cmax / MRT / Tmax / half-life: mouse, analyte in plasma after single oral CVM-1118 30 mg/kg in 9% NaHCO3, fasted male CD-1 mice; for half-life: read-out: T1/2 (terminal half-life) (converted). The protocol:
Supplementary Results on Pharmacokinetic study of oral CVM-1118 in Mouse Method: The pharmacokinetics of CVM-1118 and CVM-1125 were investigated in male CD-1 mice following a single oral administration of CVM-1118 at 30 mg/kg in 9% NaHCO3 in fasted mice. At pre-determined time points, plasma samples were collected and stored at -20°C prior to measurement of CVM-1118 and CVM-1125 concentrations using an LC-MS/MS method. The plasma samples were collected at 0, 0.25, 0.5, 1, 2, 4, 8, 12, 24 and 27 h after dosing with 3 mice per group at each time […]
Result: For single oral administration of 30 mg/kg CVM-1118 in 9% NaHCO3 solution, […]
from CVM-1118 to CVM-1125 occurred very rapidly.
1118 and CVM-1125. The drug exposure (AUC0-inf) of CVM-1118 was low (7 ng·h/mL), indicating rapid conversion to CVM-1125 following oral dosing (AUC0-inf of TRX-818M1 was 287 ng·h/mL). The terminal half-life of CVM-1118 and CVM-1125 were 0.7 h and 8.3 h, respectively. The oral bioavailability of CVM-1118 was low (~3%), […]
1118, was considered favorable.
Mean plasma concentrations-time curves of CVM-1118 and CVM-1125 following a single dose of CVM-1118 in male CD-1 mice
(§2) (1 picture or pasted object on this page, not shown here)

For another data set, the system named is Mia PaCa-2. In words: Cytotoxicity assay (Alamar Blue, 72 h). Type of data set: cell-based. Particulars: Homo sapiens, Mia PaCa-2 (Pancreatic). The protocol: (§3) For cytotoxicity and cell cycle analysis, the following cell lines were used, and their culture conditions were as described: for A549, DU-145, HT-29, MDA-MB-231, Mia PaCa-2, and U118MG, cells were cultured in DMEM containing 10% FCS; for MDA- MB-435 and NCI-ADR-RES, cells were cultured in RPMI-1640 containing 10% FCS, and for SK-N-MC, cells were cultured in MEM containing 10% FCS. For the animal pharmacology study, HCT-116, a colon cancer cell line was tested. Cells were cultured in McCoy’s 5a medium supplemented with 10% heat inactivated fetal bovine serum. For the cell lines used in VM analysis and target identification, C8161 and COLO205 cells were maintained in RPMI-1640 containing 10% FBS and 0.1% gentamycin sulfate. The SKOV3 line was cultured in RPMI-1640 supplemented with 15% FBS and 0.1% gentamycin sulfate. For the SK-MEL28 and MCF-7, cells were maintained in MEM/Earles Salts supplemented with 10% FBS and 0.1% gentamycin sulfate.
as §1
Background: The colour change of resazurin is a common sign of viable cells or microbes.

The next data set has as its system SK-N-MC. Put plainly: Cytotoxicity assay (Alamar Blue, 72 h). Type of data set: cell-based. Particulars: Homo sapiens, SK-N-MC (Neuroblastoma). The protocol:
as §3, §1

The next data set has as its system MDA-MB-231. In words: Cytotoxicity assay (Alamar Blue, 72 h). Type of data set: cell-based. Particulars: Homo sapiens, MDA-MB-231 (Breast). The protocol:
as §3, §1

In a further data set the test system is MDA-MB-435. In words: Cytotoxicity assay (Alamar Blue, 72 h). Type of data set: cell-based. Particulars: Homo sapiens, MDA-MB-435 (Melanoma). The protocol:
as §3, §1

The next data set relates to U118MG. In words: Cytotoxicity assay (Alamar Blue, 72 h). Type of data set: cell-based. Particulars: Homo sapiens, U-118-MG, U118MG (Glioma). The protocol:
as §3, §1

The next data set has as its system NCI-ADR-RES. In words: Cytotoxicity assay (Alamar Blue, 72 h). Type of data set: cell-based. Particulars: Homo sapiens, NCI-ADR-RES (Ovarian). The protocol:
as §3, §1

The next data set relates to DU-145. In words: Cytotoxicity assay (Alamar Blue, 72 h). Particulars: Homo sapiens, DU-145 (Prostate). Type of data set: cell-based. The protocol:
as §3, §1

The next data set deals with A549. In words: Cytotoxicity assay (Alamar Blue, 72 h). Type of data set: cell-based. Particulars: Homo sapiens, A549 (Lung). The protocol:
as §3, §1

Another data set relates to HT-29. In words: Cytotoxicity assay (Alamar Blue, 72 h). Type of data set: cell-based. Particulars: Homo sapiens, HT-29 (Colon). The protocol: as §3, §1
A further data set has as its system HCT-116 cells. Put plainly: Flow cytometry cell cycle analysis (PI). Particulars: HCT-116, 48 hours, dose-response. Type of data set: cell-based, human. The protocol: Figure S2 CVM-1125 induced cell cycle arrest at G2/M in HCT-116 cells
Dose-response of CVM-1125 on cell cycle profile in HCT-116 cells was assessed by flow cytometry after treatment for 48 hours. Fluorescent signals of propidium iodide (FL2-A) of single cells were attributed to cell cycle phases and converted into percentage of the whole population of single cells (100%). The data shown are representative of at least three independent experiments.
as §2
(In general: In flow cytometry, cells or beads pass a laser one at a time.)

A further data set has as its system T-47D. Put plainly: NCI 60 cytotoxicity screening. Type of data set: cell-based. Particulars: Homo sapiens, T47D, Breast.
A further data set has as its system CCRF-CEM. In words: NCI 60 cytotoxicity screening. Type of data set: cell-based. Particulars: Homo sapiens, Leukemia.
For a further data set, the system named is HT29. Put plainly: NCI 60 cytotoxicity screening. Type of data set: cell-based. Particulars: Homo sapiens, HT-29; HT29, Colon.

Take `COc1ccc2[nH]c(-c3cccc(F)c3)cc(=O)c2c1OP(=O)(O)O` [CVM-1118]: the half-inhibitory concentration (IC50) in [1] is less than 50 nM; with Mia PaCa-2 it was 11 nM; with SK-N-MC, 9 nM; in the data set with MDA-MB-231, 18 nM; with MDA-MB-435 it was 4 nM; with U118MG, 10 nM. Further, the 50% inhibitory concentration (IC50) came to 14 nM in the data set with NCI-ADR-RES, 21 nM in the data set with DU-145, 26 nM in the data set on A549 and 15 nM in the data set with HT-29. In data set [2] (male, CD-1, mouse, plasma, po, 30 mg/kg, single oral CVM-1118 30 mg/kg in 9% NaHCO3, fasted male CD-1 mice, read-out: F (oral bioavailability)), the bioavailability is roughly 3%. The compound also yielded an AUC(0-inf) in [2] of 7 ng·h/mL. The compound further came in with an AUC(0-t) in data set [2] of 7 ng·h/mL. In addition, the Cmax in data set [2] amounted to 21 ng/mL. In addition, the MRT in data set [2] worked out at 36 min. In addition, the Tmax in [2] worked out at 15 min. Moreover, in data set [2], the half-life is 42 min. For the same compound, the “F (oral bioavailability)” value in data set [2] (single oral CVM-1118 30 mg/kg in 9% NaHCO3, fasted male CD-1 mice, 30 mg/kg) is reported as 2.96%.
Turning to `COc1ccc2[nH]c(-c3cccc(F)c3)cc(=O)c2c1O` [CVM-1125], the “Effect on cell cycle profile” value with HCT-116 cells was “G2/M arrest and increased sub-G1”. Moreover, the IC50 was less than 50 nM in data set [1]; 7 nM with Mia PaCa-2; 8 nM in the data set on SK-N-MC; 14 nM with MDA-MB-231; 5 nM in the data set on MDA-MB-435; 8 nM in the data set with U118MG. In addition, the IC50 came to 14 nM in the data set with NCI-ADR-RES, 27 nM in the data set with DU-145, 29 nM in the data set on A549 and 17 nM in the data set on HT-29. Also, the results for the GI50 in the data set with T-47D, in the data set with CCRF-CEM and in the data set on HT29 were 28 nM, 34.8 nM and 29 nM, respectively. Moreover, the AUC(0-inf) in [2] stood at 287 ng·h/mL. The compound further returned an AUC(0-t) in data set [2] of 279 ng·h/mL. Also, the Cmax in data set [2] came out at 349 ng/mL. Further, the MRT in [2] worked out at 180 min. Further, the Tmax in [2] stood at 15 min. The half-life in [2] was 498 min.
